Test results taken from patent US7888042B2, “Methods for identifying insulin mimetics” (Ohio University, priority 2005, dated 2011).

Columns and labels:
Format in all cases: cell-based
[1] = test system: 3T3-L1 adipocytes; assay: Glucose uptake assay in 3T3-L1 adipocytes
Protocol: Chemical synthesis yields both the α- and β-anomers of PGG. (B) Glucose transport stimulatory activity (13, 14) of PGG was assessed by incubating adipocytes in 6-well plates with insulin or PGG for 15 min followed by the addition of [^3H]-2-deoxy-D-glucose for 10 min before quantifying uptake (13, n=3, mean±SD, Two way-ANOVA, * P<0.05; ** P<0.01). α-PGG (●); β-PGG (□); insulin (∘). (C) Glucose transport induced by insulin in the presence of α-PGG. One […] of insulin was added to adipocytes in the presence of increasing amounts of α-PGG. After induction, radioactive glucose was added, and the glucose taken up by the cells was counted.
Reagents, compound synthesis, and glucose uptake assay. Bovine insulin was purchased from Sigma. PGG, in an approximate 1:1 mixture of α- and β-PGG, was synthesized from glucose in the non-radioactive form as described (22). The identity of the compounds was confirmed by MS and NMR. The compounds were dissolved in double distilled water (ddH2O), filter sterilized, and stored as a 10 mM aqueous stock solution at −20° C. The stock solutions were diluted to final concentrations with sterile ddH2O. Glucose uptake assays in 3T3-L1 adipocytes induced by PGG were performed as described (13).

[2] = test system: 3T3-L1 adipocytes; assay: Glucose uptake assay with insulin signaling pathway inhibitors; details: inhibitor added along with α-PGG
Protocol: (§1) (A) Glucose transport was measured by determining [^3H]-2-deoxyglucose uptake stimulated by either insulin or α-PGG in 3T3-L1 cells in the presence or absence of HNMPA-(AM)3, an inhibitor of IR tyrosine kinase activity (24); wortmannin, an inhibitor of PI 3-kinase (25), or cytochalasin B, an inhibitor of GLUT4 (26), (n=4, mean±SD). (B) Cells were induced by 20 or 40 μM α-PGG or 100 nM insulin for 15 min. Cell lysates were separated by PAGE and analyzed for phosphorylation of IR (in CHO-IR cells) or Akt (in adipocytes) using antibodies specific to the target proteins. (C) Cells were treated with α-PGG and insulin in a fashion similar to (B) and assayed for their respective PI-3 kinase activity with a radioactive TLC method (27). (D) In similar experiments, intact cells were analyzed by confocal microscopy for translocation of GLUT4 using anti-GLUT4 antibodies.
Insulin signaling pathway study with inhibitors. To identify the signaling pathway and its potential protein target for PGG's glucose transport activity, three inhibitors to the insulin signaling pathway were selected. […] Inhibitors were individually added to the 3T3-L1 adipocytes along with either α-PGG or insulin at predetermined concentrations during glucose uptake assays, and the inhibition was measured by the glucose taken in by the cell samples treated with or without inhibitors.

[3] = test system: GLUT4; assay: GLUT4 translocation, confocal microscopy; details: adipocytes, 37° C., 15 min
Protocol: as §1
Protein phosphorylation/activation and GLUT4 translocation. To investigate signal transduction induced by α-PGG, proteins from 3T3-L1 adipocytes or CHO-IR cells (23), which were treated with α-PGG or insulin for 15 min, were isolated, separated by PAGE, blotted on nylon membranes, and analyzed by Western blotting with antibodies against either IR or Akt. […]

## O=C(OC[C@H]1OC(OC(=O)c2cc(O)c(O)c(O)c2)[C@H](OC(=O)c2cc(O)c(O)c(O)c2)[C@@H](OC(=O)c2cc(O)c(O)c(O)c2)[C@@H]1OC(=O)c1cc(O)c(O)c(O)c1)c1cc(O)c(O)c(O)c1 (stereo partly drawn) [PGG, 1,2,3,4,6-penta-O-galloyl-D-glucose]
[1]
  mode of action at IR for glucose transport activity: partial agonist

## C=C1[C@@H](C)[C@H]2[C@H](Cc3ccccc3)NC(=O)[C@]23OC(=O)/C=C/[C@H](O)CCC[C@@H](C)C/C=C/[C@H]3[C@@H]1O [cytochalasin B]
[2]
  glucose transport activity induced by α-PGG in presence of inhibitor: completely abolished

## O=C(OC[C@H]1O[C@@H](OC(=O)c2cc(O)c(O)c(O)c2)[C@H](OC(=O)c2cc(O)c(O)c(O)c2)[C@@H](OC(=O)c2cc(O)c(O)c(O)c2)[C@@H]1OC(=O)c1cc(O)c(O)c(O)c1)c1cc(O)c(O)c(O)c1 [β-PGG]
[1]; 3T3-L1 adipocytes, [3H]-2-deoxy-D-glucose uptake, 15 min incubation
  induction of glucose transport: induced glucose transport in adipocytes in a dose-dependent manner

## insulin: Bovine insulin purchased from Sigma
[3]
  GLUT4 translocation: translocated to the plasma membrane
